# According to patent publication US7741368B2, “Approach to antimicrobial host defense with molecular shields with EPA and DHA analogs” (The Brigham and Women's Hospital, Inc., priority 2001, dated 2010):
# Tested on: BPI
# Conditions: confluent Caco2 intestinal epithelial monolayers, 1 μM, 24 hr, β actin internal standard (FIG. 5)
smiles,measurement,value
"CC[C@@H](O)/C=C/C=C\C[C@@H](O)/C=C/C=C/C=C\[C@@H](O)CCCC(=O)O [5S,12R,18R-tri-HEPE]",fold induction of BPI mRNA,BPI induction
